In DBAASP:
In brackets after ≈: the same amount, converted by molar mass. Each block holds one molecule with its values, some of them ahead of it.

Experiments:
Test in all cases: ≥ marks a high value that may be exact or a test limit, other limits are often not marked, values filed in µg/mL are converted to µM
[1] = tested on: Aeromonas hydrophila BCRC 13018
[2] = tested on: Enterococcus faecalis BCRC 10066
[3] = tested on: Helicobacter pylori ATCC 43504
[4] = tested on: Helicobacter pylori ATCC 43629
[5] = tested on: Helicobacter pylori ATCC 700392
Helicobacter pylori = tested on: Helicobacter pylori
[6] = tested on: Pseudomonas aeruginosa ATCC 19660
[7] = tested on: Streptococcus agalactiae 819
[8] = tested on: Streptococcus agalactiae BCRC 10787
Vibrio alginolyticus = tested on: Vibrio alginolyticus
Vibrio vulnificus 204 = tested on: Vibrio vulnificus 204
[9] = tested on: Enterococcus faecalis NCTC 12697
[10] = tested on: Escherichia coli ATCC 25922
[11] = tested on: Escherichia coli ATCC 27325
[12] = tested on: Lactobacillus acidophilus NCTC 1723
[13] = tested on: Pseudomonas aeruginosa ATCC 15692
[14] = tested on: Pseudomonas aeruginosa ATCC 27853
[15] = tested on: Staphylococcus aureus ATCC 25923
[16] = tested on: Streptococcus mutans NCTC 10449
[17] = tested on: Bacillus subtilis ATCC 62037
[18] = tested on: Candida albicans ATCC 10231
[19] = tested on: Cryptococcus neoformans ATCC 34881
[20] = tested on: Pseudomonas putida ATCC 17426
[21] = tested on: Saccharomyces cerevisiae ATCC 44774
[22] = tested on: Salmonella enterica subsp. enterica serovar Enteritidis ATCC 13076
[23] = tested on: Staphylococcus aureus ATCC 15752
[24] = tested on: Streptococcus mutans ATCC 25175
[25] = tested on: Acinetobacter baumannii NM8
[26] = tested on: Candida albicans ATCC 90028
[27] = tested on: Escherichia coli ATCC 25726
[28] = tested on: Klebsiella pneumoniae ATCC 700603
[29] = tested on: Staphylococcus epidermidis RP62A/1
[30] = tested on: Staphylococcus epidermidis RP62A
[31] = tested on: Stenotrophomonas maltophilia B32/4
Bacillus subtilis = tested on: Bacillus subtilis
Candida albicans = tested on: Candida albicans
Enterococcus faecium = tested on: Enterococcus faecium
[32] = tested on: Escherichia coli DH5alpha
[33] = tested on: Escherichia coli K-12 D31
Morganella morganii = tested on: Morganella morganii
Saccharomyces cerevisiae = tested on: Saccharomyces cerevisiae
Salmonella enterica = tested on: Salmonella enterica
Staphylococcus aureus = tested on: Staphylococcus aureus
[34] = tested on: Staphylococcus haemolyticus
[35] = tested on: Staphylococcus saprophyticus
Staphylococcus warneri = tested on: Staphylococcus warneri

Compound: CC[C@H](C)[C@H](NC(=O)[C@H](CC(C)C)NC(=O)[C@H](CCC(=O)O)NC(=O)[C@H](CCC(N)=O)NC(=O)[C@H](CC(C)C)NC(=O)[C@@H](NC(=O)[C@H](CCCCN)NC(=O)[C@H](CCC(N)=O)NC(=O)[C@@H](NC(=O)[C@@H](NC(=O)[C@H](CCC(=O)O)NC(=O)CNC(=O)[C@H](CO)NC(=O)[C@@H](NC(=O)[C@H](CCC(N)=O)NC(=O)[C@H](CCCCN)NC(=O)CNC(=O)[C@H](CCC(N)=O)NC(=O)[C@H](CC(C)C)NC(=O)[C@@H](N)CCC(N)=O)C(C)C)C(C)C)C(C)C)C(C)C)C(=O)N[C@@H](CCC(N)=O)C(=O)N[C@@H](CO)C(=O)N[C@H](C(=O)N[C@@H](C)C(=O)N[C@@H](CCCCN)C(=O)N1CCC[C@H]1C(N)=O)C(C)C [QLQGKQVSGEVVQKVLQELIQSVAKP]
MIC [1]: 6.22 µM (≈ 17.6 µg/mL) | MIC [2]: 6.22 µM (≈ 17.6 µg/mL) | MIC [3]: 4.23 µM (≈ 12 µg/mL) | MIC [4]: 4.23 µM (≈ 12 µg/mL) | MIC [5]: 4.23 µM (≈ 12 µg/mL) | MIC (Helicobacter pylori): 4.23 µM (≈ 12 µg/mL) | MIC [6]: 6.22 µM (≈ 17.6 µg/mL) | MIC [7]: 6.22 µM (≈ 17.6 µg/mL) | MIC [8]: 6.22 µM (≈ 17.6 µg/mL) | MIC (Vibrio alginolyticus): 6.22 µM (≈ 17.6 µg/mL) | MIC (Vibrio vulnificus 204): 6.22 µM (≈ 17.6 µg/mL)

Compound: CC[C@H](C)[C@H](N)C(=O)N[C@@H](CC(C)C)C(=O)NCC(=O)N[C@@H](C)C(=O)N[C@H](C(=O)N[C@@H](CC(C)C)C(=O)N1CCC[C@H]1C(=O)N[C@@H](CC(C)C)C(=O)N[C@H](C(=O)N[C@@H](CO)C(=O)NCC(=O)N[C@@H](CC(C)C)C(=O)N[C@@H](CC(C)C)C(=O)N[C@@H](CO)C(=O)N[C@@H](CC(N)=O)C(=O)N[C@@H](CCCCN)C(=O)N[C@@H](CC(C)C)C(N)=O)C(C)C)[C@@H](C)CC [ILGAILPLVSGLLSNKL]
MIC [25]: ≥ 128 µM | MIC [26]: ≥ 64 µM | MIC [27]: ≥ 256 µM | MIC [28]: > 256 µM | MIC [14]: > 256 µM | MIC [15]: 128 µM (≈ 220 µg/mL) | MIC [29]: ≥ 128 µM | MIC [30]: ≥ 128 µM | MIC [31]: ≥ 256 µM

The next lines start with results.

MIC [9]: ≥ 150 µM | MIC [10]: 1.56 µM (≈ 5.2 µg/mL) | MIC [11]: ≥ 150 µM | MIC [12]: ≥ 150 µM | MIC [13]: ≥ 75.1 µM | MIC [14]: 1.23 µM (≈ 4.1 µg/mL) | MIC [15]: > 150 µM | MIC [16]: ≥ 45.3 µM
Compound: CC[C@H](C)[C@H](NC(=O)[C@H](CO)NC(=O)[C@H](CC(N)=O)NC(=O)[C@H](CC(C)C)NC(=O)[C@H](Cc1ccc(O)cc1)NC(=O)[C@H](CCCCN)NC(=O)[C@H](CCCCN)NC(=O)[C@@H](NC(=O)[C@H](C)NC(=O)[C@H](CCSC)NC(=O)[C@H](CCC(N)=O)NC(=O)[C@H](CCCCN)NC(=O)[C@H](CCCN=C(N)N)NC(=O)[C@H](CC(C)C)NC(=O)[C@H](CCCN=C(N)N)NC(=O)[C@@H](NC(=O)[C@H](Cc1ccc(O)cc1)NC(=O)[C@H](CC(N)=O)NC(=O)[C@H](CC(=O)O)NC(=O)[C@@H](NC(=O)[C@H](Cc1ccccc1)NC(=O)[C@@H](NC(=O)[C@H](C)NC(=O)[C@H](CC(=O)O)NC(=O)[C@H](CO)NC(=O)[C@@H](N)Cc1cnc[nH]1)C(C)C)[C@@H](C)O)[C@@H](C)O)C(C)C)C(=O)N[C@@H](CC(C)C)C(=O)N[C@@H](CC(N)=O)C(N)=O [HSDAVFTDNYTRLRKQMAVKKYLNSILN]

MIC [17]: 0.827 µM (≈ 2 µg/mL) | MIC [18]: 0.413 µM (≈ 1 µg/mL) | MIC [19]: 0.827 µM (≈ 2 µg/mL) | MIC [11]: 0.827 µM (≈ 2 µg/mL) | MIC [20]: 0.413 µM (≈ 1 µg/mL) | MIC [21]: 0.827 µM (≈ 2 µg/mL) | MIC [22]: 0.827 µM (≈ 2 µg/mL) | MIC [23]: 0.413 µM (≈ 1 µg/mL) | MIC [24]: 0.827 µM (≈ 2 µg/mL)
Compound: CC[C@H](C)[C@H](NC(=O)[C@@H]1CCCN1C(=O)[C@H](Cc1c[nH]c2ccccc12)NC(=O)[C@H](CCC(N)=O)NC(=O)[C@H](CCCCN)NC(=O)[C@@H](NC(=O)[C@@H](NC(=O)[C@@H](N)CCCCN)C(C)C)C(C)C)C(=O)NCC(=O)N[C@@H](CCCCN)C(=O)N[C@H](C(=O)N[C@H](C(=O)N[C@@H](CCCCN)C(=O)N[C@@H](CCCCN)C(=O)N[C@H](C(=O)N[C@H](C(=O)N[C@@H](CCCCN)C(=O)N[C@@H](CCCCN)C(=O)N[C@H](C(=O)N[C@H](C(=O)N[C@@H](CCCCN)C(=O)O)C(C)C)C(C)C)C(C)C)C(C)C)C(C)C)C(C)C [KVVKQWPIGKVVKKVVKKVVK]

MIC (Bacillus subtilis): ≥ 48 µM | MIC (Candida albicans): 96 µM (≈ 267 µg/mL) | MIC (Enterococcus faecium): 15 µM (≈ 41.6 µg/mL) | MIC [32]: 7.5 µM (≈ 20.8 µg/mL) | MIC [33]: 3 µM (≈ 8.33 µg/mL) | MIC (Morganella morganii): 12 µM (≈ 33.3 µg/mL) | MIC (Saccharomyces cerevisiae): ≥ 384 µM | MIC (Salmonella enterica): 6 µM (≈ 16.7 µg/mL) | MIC (Staphylococcus aureus): 1.5 µM (≈ 4.16 µg/mL) | MIC [35]: 7.5 µM (≈ 20.8 µg/mL) | MIC (Staphylococcus warneri): 15 µM (≈ 41.6 µg/mL)
Compound: CC[C@H](C)[C@H](NC(=O)[C@H](CC(C)C)NC(=O)[C@H](CCCCN)NC(=O)CNC(=O)[C@H](C)NC(=O)[C@H](Cc1cnc[nH]1)NC(=O)[C@@H](NC(=O)[C@H](CC(C)C)NC(=O)CNC(=O)[C@H](Cc1cnc[nH]1)NC(=O)[C@H](Cc1ccccc1)NC(=O)[C@@H](NC(=O)[C@H](CC(C)C)NC(=O)CNC(=O)[C@H](CC(C)C)NC(=O)[C@@H](N)Cc1ccccc1)[C@@H](C)CC)C(C)C)C(=O)N[C@@H](Cc1cnc[nH]1)C(=O)NCC(=O)N[C@@H](CC(C)C)C(=O)N[C@H](C(=O)N[C@@H](Cc1cnc[nH]1)C(=O)N[C@@H](CCCN=C(N)N)C(=O)N[C@@H](CC(N)=O)C(=O)N[C@@H](CCCN=C(N)N)C(=O)NCC(=O)O)[C@@H](C)CC [FLGLIFHGLVHAGKLIHGLIHRNRG]
MIC [34]: 7.5 µM (≈ 20.8 µg/mL)
